From patent US20130253056A1, “Continuous Administration of Levodopa and/or Dopa Decarboxylase Inhibitors and Compositions for Same” (NEURODERM, LTD., priority 2009, published 2013)

Legend:
[1] = mice
Procedure: Mice were implanted subcutaneously with Alzet pumps containing Saline (Negative Control), Vehicle or Carbidopa solution. A day following implantation LD/CD was administered orally Q8 h. The level of levodopa and dopamine in the brain was determined following the 4th oral dose of LD/CD.

[2] = in vivo, sc
[3] = in vivo
Excerpt: (§1) In this experiment, the purpose was to determine the effect of continuous subcutaneous administration of carbidopa, with co-administration of oral L-dopa/carbidopa, on the pharmacokinetics of levodopa in pigs.

[4] = cited from earlier work
[5] = man, monkey and dog; cited from earlier work
[6] = Effect of continuous subcutaneous carbidopa on pharmacokinetics of levodopa and carbidopa in pigs
Excerpt: as §1

[7] = continuous subcutaneous carbidopa co-administered with any oral LD preparation

C[C@@](Cc1ccc(O)c(O)c1)(NN)C(=O)O [Carbidopa, (−)-L-α-hydrazino-α-methyl-β-(3,4-dihydroxybenzene)propanoic acid monohydrate]
levels of plasma LD ([1]; oral LD/CD with continuous SC carbidopa 15 mg/kg/d): higher levels of plasma LD
dopamine levels in the brain ([1]; seven hours post oral LD (LD/CD 32/8 mg/kg TID), continuous SC carbidopa 15 mg/kg/d): significantly higher
histological analysis of infusion sites (local tolerance) [2]: No histological treatment-related abnormalities were observed
treatment related local or systemic toxicity [3]: No signs of treatment related local or systemic toxicity were observed
solubility in alcohol, chloroform or ether [4]: practically insoluble
solubility in water [4]: only slightly soluble in water
fraction of an oral dose absorbed [5]: 40-70%
effect of increased carbidopa oral dose or frequency on the PK profile of levodopa [6]: did not considerably improve
increase of the AUC of levodopa [6, 7]: > 2 ×
increase of the half live (t½) of levodopa [6, 7]: > 2 ×
